In US12503471B2, “Triazatricycle compounds for the treatment of autoimmune disease” (Hoffmann-La Roche Inc., priority 2019, dated 2025) one finds IC50 data, which are given here for 18 compounds.

For this assay, the target named is T1, human TLR8 (Homo sapiens, UniProt Q9NR97).
T1 construct: host or cells: HEK293 (HEK-Blue hTLR8)
T1 sequence (Q9NR97 27-1041): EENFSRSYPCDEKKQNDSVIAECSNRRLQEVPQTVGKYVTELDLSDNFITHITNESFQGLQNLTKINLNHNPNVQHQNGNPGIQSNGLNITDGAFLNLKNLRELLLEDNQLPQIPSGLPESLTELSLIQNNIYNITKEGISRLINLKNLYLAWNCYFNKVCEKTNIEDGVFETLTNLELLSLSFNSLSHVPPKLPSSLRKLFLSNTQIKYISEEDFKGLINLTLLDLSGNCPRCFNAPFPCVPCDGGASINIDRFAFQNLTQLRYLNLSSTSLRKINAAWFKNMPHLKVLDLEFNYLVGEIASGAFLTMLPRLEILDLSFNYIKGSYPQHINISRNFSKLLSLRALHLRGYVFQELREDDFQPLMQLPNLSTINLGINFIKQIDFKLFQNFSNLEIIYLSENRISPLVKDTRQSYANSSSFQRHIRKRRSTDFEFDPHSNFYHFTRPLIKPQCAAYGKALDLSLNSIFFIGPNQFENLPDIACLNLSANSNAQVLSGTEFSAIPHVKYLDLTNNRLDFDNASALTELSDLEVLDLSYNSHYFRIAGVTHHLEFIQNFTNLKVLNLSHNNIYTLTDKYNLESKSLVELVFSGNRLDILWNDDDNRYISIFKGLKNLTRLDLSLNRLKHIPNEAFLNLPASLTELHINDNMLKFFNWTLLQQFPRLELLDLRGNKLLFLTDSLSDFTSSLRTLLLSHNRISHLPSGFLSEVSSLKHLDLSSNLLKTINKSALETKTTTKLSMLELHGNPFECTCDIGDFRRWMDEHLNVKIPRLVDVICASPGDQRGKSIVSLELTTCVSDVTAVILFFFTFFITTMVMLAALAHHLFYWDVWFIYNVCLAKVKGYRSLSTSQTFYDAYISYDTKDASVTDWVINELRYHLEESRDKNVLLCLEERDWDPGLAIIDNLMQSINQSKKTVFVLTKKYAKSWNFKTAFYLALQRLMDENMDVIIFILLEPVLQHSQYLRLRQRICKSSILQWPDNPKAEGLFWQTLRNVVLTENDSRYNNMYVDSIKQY
Description: HEK293-Blue-hTLR-8 cells assay. Particulars: HEK293-Blue-hTLR8 cells, R848 stimulation, 20 hrs, SEAP reporter; read-out: HEK/hTLR8 IC50. In kind it is cell-based. The source says: HEK293-Blue-hTLR-8 Cells Assay:
A stable HEK293-Blue-hTLR-8 cell line was purchased from InvivoGen (Cat. #: hkb-htlr8, San Diego, Calif., USA). These cells were originally designed for studying the stimulation of human TLR8 by monitoring the activation of NF-κB. A SEAP (secreted embryonic alkaline phosphatase) reporter gene was placed under the control of the IFN-β minimal promoter fused to five NF-κB and AP-1-binding sites. The SEAP was induced by activating NF-κB and AP-1 via stimulating HEK-Blue hTLR8 cells with TLR8 ligands. Therefore the reporter expression was declined by TLR8 antagonist under the stimulation of a ligand, such as R848, for incubation of 20 hrs. The cell culture supernatant SEAP reporter activity was determined using QUANTI-Blue™ kit (Cat. #: rep-qbl, Invivogen, San Diego, Ca, USA) at a wavelength of 640 nm, a detection medium that turns purple or blue in the presence of alkaline phosphatase.
HEK293-Blue-hTLR8 cells were incubated at a density of 250,000˜450,000 cells/mL in a volume of 170 μL in a 96-well plate in Dulbecco's Modified Eagle's medium (DMEM) containing 4.5 g/L glucose, 50 U/mL penicillin, […], […], 2 mM L-glutamine, 10% (v/v) heat-inactivated fetal bovine serum with addition of 20 μL test compound in a serial dilution in the presence of final DMSO at 1% and 10 μL of 60 uM R848 in above DMEM, perform incubation under 37° C. in a CO2 incubator for 20 hrs. Then 20 μL of the supernatant from each well was incubated with 180 μL Quanti-blue substrate solution at 37° C. for 2 hrs and the absorbance was read at 620-655 nm using a spectrophotometer. The signaling pathway that TLR8 activation leads to downstream NF-κB activation has been widely accepted, and therefore similar reporter assay was modified for evaluating TLR8 antagonist.
As for `C[C@@H]1CN(c2ccc(C#N)c3ncccc23)C[C@@H]2c3cnc(N4CCNCC4)cc3CN12` [Example 2, 5-[(2S,6R)-6-methyl-11-piperazin-1-yl-4,7,12-triazatricyclo[7.4.0.02,7]trideca-1(9),10,12-trien-4-yl] quinoline-8-carbonitrile], the IC50 amounted to 0.4 nM.
Then `N#Cc1ccc(N2CCN3Cc4nc(N5CCNCC5)ccc4[C@@H]3C2)c2cccnc12` [Example 3A, 5-[(2R)-11-piperazin-1-yl-4,7,10-triazatricyclo[7.4.0.02,7]trideca-1(9),10,12-trien-4-yl]quinoline-8-carbonitrile], with 0.5 nM; and `CC1(N)CCN(c2ccc3c(n2)CN2CCN(c4ccc(C#N)c5ncccc45)C[C@@H]32)CC1` [Example 4A, 5-[(2R)-11-(4-amino-4-methyl-1-piperidyl)-4,7,10-triazatricyclo[7.4.0.02,7]trideca-1(9),10,12-trien-4-yl]quinoline-8-carbonitrile], with 1.9 nM; and `C[C@@H]1CN(c2ccc(C#N)c3ncccc23)C[C@@H]2c3ccc(N4CCNCC4)nc3CN12` [Example 5, 5-[(2S,6R)-6-methyl-11-piperazin-1-yl-4,7,10-triazatricyclo[7.4.0.02,7]trideca-1(9),10,12-trien-4-yl]quinoline-8-carbonitrile], with < 0.3 nM.
For `C[C@@H]1CN(c2ccc(C#N)c3ncccc23)C[C@@H]2c3ccc(N4CC5CNCC(C4)O5)nc3CN12` [Example 6, 5-[(2S,6R)-6-methyl-11-(9-oxa-3,7-diazabicyclo[3.3.1]nonan-3-yl)-4,7,10-triazatricyclo[7.4.0.02,7]trideca-1(9),10,12-trien-4-yl]quinoline-8-carbonitrile] the value was 2.3 nM; for `[2H]c1ccc2c(N3C[C@@H](C)N4Cc5nc(N6CC[C@@](C)(N)C6)ccc5[C@H]4C3)ccc(C#N)c2n1` [Example 7, 5-[(2S,6R)-11-[(3R)-3-amino-3-methyl-pyrrolidin-1-yl]-6-methyl-4,7,10-triazatricyclo[7.4.0.02,7]trideca-1(9),10,12-trien-4-yl]-2-deuterio-quinoline-8-carbonitrile], < 0.3 nM; for `[2H]c1ccc2c(N3C[C@@H](C)N4Cc5nc(N6CC[C@](C)(N)C6)ccc5[C@H]4C3)ccc(C#N)c2n1` [Example 8, 5-[(2S,6R)-11-[(3S)-3-amino-3-methyl-pyrrolidin-1-yl]-6-methyl-4,7,10-triazatricyclo[7.4.0.02,7]trideca-1(9),10,12-trien-4-yl]-2-deuterio-quinoline-8-carbonitrile], < 0.3 nM.
For `[2H]c1ccc2c(N3C[C@@H](C)N4Cc5nc(N6CCC7(CNC7)C6)ccc5[C@H]4C3)ccc(C#N)c2n1` [Example 9, 2-Deuterio-5-[(2S,6R)-11-(2,6-diazaspiro[3.4]octan-6-yl)-6-methyl-4,7,10-triazatricyclo[7.4.0.02,7]trideca-1(9),10,12-trien-4-yl]quinoline-8-carbonitrile] the value was 0.7 nM; for `[2H]c1ccc2c(N3C[C@@H](C)N4Cc5nc(N6CC[C@H]7CNC[C@H]76)ccc5[C@H]4C3)ccc(C#N)c2n1` [Example 10, 5-[(2S,6R)-11-[(3aS,6aS)-3,3a,4,5,6,6a-hexahydro-2H-pyrrolo[2,3-c]pyrrol-1-yl]-6-methyl-4,7,10-triazatricyclo[7.4.0.02,7]trideca-1(9),10,12-trien-4-yl]-2-deuterio-quinoline-8-carbonitrile], < 0.3 nM; for `[2H]c1ccc2c(N3C[C@@H](C)N4Cc5nc(N6CC[C@@H](N)[C@H](OC)C6)ccc5[C@H]4C3)ccc(C#N)c2n1` [Example 11, 5-[(2S,6R)-11-[(3R,4R)-4-amino-3-methoxy-1-piperidyl]-6-methyl-4,7,10-triazatricyclo[7.4.0.02,7]trideca-1(9),10,12-trien-4-yl]-2-deuterio-quinoline-8-carbonitrile], < 0.3 nM.
In the case of `[2H]c1ccc2c(N3C[C@@H](C)N4Cc5nc(N6CC[C@H](N)[C@@H](OC)C6)ccc5[C@H]4C3)ccc(C#N)c2n1` [Example 12, 5-[(2S,6R)-11-[(3S,4S)-4-amino-3-methoxy-1-piperidyl]-6-methyl-4,7,10-triazatricyclo[7.4.0.02,7]trideca-1(9),10,12-trien-4-yl]-2-deuterio-quinoline-8-carbonitrile], the IC50 is < 0.3 nM.
For `[2H]c1ccc2c(N3C[C@@H](C)N4Cc5nc(N6CC[C@H](N)[C@H](OC)C6)ccc5[C@H]4C3)ccc(C#N)c2n1` [Example 13, 5-[(2S,6R)-11-[(3R,4S)-4-amino-3-methoxy-1-piperidyl]-6-methyl-4,7,10-triazatricyclo[7.4.0.02,7]trideca-1(9),10,12-trien-4-yl]-2-deuterio-quinoline-8-carbonitrile] the value was < 0.3 nM.
Then `[2H]c1ccc2c(N3C[C@@H](C)N4Cc5nc(N6CC[C@H](OC)[C@@H](N)C6)ccc5[C@H]4C3)ccc(C#N)c2n1` [Example 14, 5-[(2S,6R)-11-[(3S,4S)-3-amino-4-methoxy-1-piperidyl]-6-methyl-4,7,10-triazatricyclo[7.4.0.02,7]trideca-1(9),10,12-trien-4-yl]-2-deuterio-quinoline-8-carbonitrile], with < 0.3 nM; and `[2H]c1ccc2c(N3C[C@@H](C)N4Cc5nc(N6CC[C@@H](OC)[C@H](N)C6)ccc5[C@H]4C3)ccc(C#N)c2n1` [Example 15, 5-[(2S,6R)-11-[(3R,4R)-3-amino-4-methoxy-1-piperidyl]-6-methyl-4,7,10-triazatricyclo[7.4.0.02,7]trideca-1(9),10,12-trien-4-yl]-2-deuterio-quinoline-8-carbonitrile], with < 0.3 nM.
For `[2H]c1ccc2c(N3C[C@@H](C)N4Cc5nc(N6C[C@@H]7C[C@H]6CN7)ccc5[C@H]4C3)ccc(C#N)c2n1` [Example 16, 2-Deuterio-5-[(2S,6R)-11-[(1S,4S)-2,5-diazabicyclo[2.2.1]heptan-2-yl]-6-methyl-4,7,10-triazatricyclo[7.4.0.02,7]trideca-1(9),10,12-trien-4-yl]quinoline-8-carbonitrile] the value was 0.4 nM.
Turning to `[2H]c1ccc2c(N3C[C@@H](C)N4Cc5nc(N6C[C@H]7C[C@@H]6CN7)ccc5[C@H]4C3)ccc(C#N)c2n1` [Example 17, 2-Deuterio-5-[(2S,6R)-11-[(1R,4R)-2,5-diazabicyclo[2.2.1]heptan-2-yl]-6-methyl-4,7,10-triazatricyclo[7.4.0.02,7]trideca-1(9),10,12-trien-4-yl]quinoline-8-carbonitrile], the IC50 is < 0.3 nM.
With `[2H]c1ccc2c(N3C[C@@H](C)N4Cc5nc(N6CCC7(CC6)CNCCO7)ccc5[C@H]4C3)ccc(C#N)c2n1` [Example 18, 2-Deuterio-5-[(2S,6R)-6-methyl-11-(1-oxa-4,9-diazaspiro[5.5]undecan-9-yl)-4,7,10-triazatricyclo[7.4.0.02,7]trideca-1(9),10,12-trien-4-yl]quinoline-8-carbonitrile], the IC50 is < 0.3 nM.
As for `[2H]c1ccc2c(N3C[C@@H](C)N4Cc5nc(N6CCC(C)(N)CC6)ccc5[C@H]4C3)ccc(C#N)c2n1` [Example 19, 5-[(2S,6R)-11-(4-amino-4-methyl-1-piperidyl)-6-methyl-4,7,10-triazatricyclo[7.4.0.02,7]trideca-1(9),10,12-trien-4-yl]-2-deuterio-quinoline-8-carbonitrile], the IC50 is < 0.3 nM.
